Where “and” joins values, the source holds several entries; their conditions need not be identical. Identical values can stand only once. Toxic doses and inconclusive results are not listed. Rule for the calls: active = survival T/C of 150% or more; inactive = T/C below 125% in these data. Peptide text beside a SMILES is read from it.
Test system: P388 leukemia ip, CD2F1 mice, survival T/C
Assay: NCI In Vivo Anticancer Drug Screen. Data for tumor model P388 Leukemia (intraperitoneal) in CD2F1 (CDF1) mice
Settings: endpoint: median survival time, higher = longer survival
In short: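 Mice carrying the transplanted tumor received test compound or vehicle. Survival was recorded in each group, and the value is the treated-group measurement divided by that of the vehicle-treated control group.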

[1] = dose: 60.0 mg/kg/injection, schedule: Q01DX005 (ip), vehicle: saline with Tween-80
[2] = dose: 120.0 mg/kg/injection, schedule: Q01DX005 (ip), vehicle: saline with Tween-80
[3] = dose: 50.0 mg/kg/injection, schedule: Q01DX005 (ip), vehicle: Klucel (hydroxypropylcellulose) (HPC)
[4] = dose: 240.0 mg/kg/injection, schedule: Q01DX005 (ip), vehicle: saline with Tween-80
[5] = dose: 50.0 mg/kg/injection, schedule: Q01DX009 (ip), vehicle: Klucel (hydroxypropylcellulose) (HPC)
[6] = dose: 100.0 mg/kg/injection, schedule: Q01DX009 (ip), vehicle: Klucel (hydroxypropylcellulose) (HPC)
[7] = dose: 200.0 mg/kg/injection, schedule: Q01DX009 (ip), vehicle: Klucel (hydroxypropylcellulose) (HPC)
[8] = dose: 100.0 mg/kg/injection, schedule: Q01DX005 (ip), vehicle: Klucel (hydroxypropylcellulose) (HPC)
[9] = dose: 200.0 mg/kg/injection, schedule: Q01DX005 (ip), vehicle: Klucel (hydroxypropylcellulose) (HPC)
[10] = dose: 12.5 mg/kg/injection, schedule: Q01DX005 (ip), vehicle: saline with Tween-80
[11] = dose: 25.0 mg/kg/injection, schedule: Q01DX005 (ip), vehicle: saline with Tween-80
[12] = dose: 50.0 mg/kg/injection, schedule: Q01DX005 (ip), vehicle: saline with Tween-80
[13] = dose: 100.0 mg/kg/injection, schedule: Q01DX005 (ip), vehicle: saline with Tween-80
[14] = dose: 200.0 mg/kg/injection, schedule: Q01DX005 (ip), vehicle: saline with Tween-80
[15] = dose: 50.0 mg/kg/injection, schedule: Q01DX009 (ip), vehicle: saline with Tween-80
[16] = dose: 60.0 mg/kg/injection, schedule: Q01DX005 (ip), vehicle: Klucel (hydroxypropylcellulose) (HPC)
[17] = dose: 120.0 mg/kg/injection, schedule: Q01DX005 (ip), vehicle: Klucel (hydroxypropylcellulose) (HPC)
[18] = dose: 240.0 mg/kg/injection, schedule: Q01DX005 (ip), vehicle: Klucel (hydroxypropylcellulose) (HPC)

Measured: T/C

C/C=C1\CN2CCC34c5ccccc5N5C(C6C7CC8N(CCC89c8cccc(O)c8N(C(C)=O)C69)C/C7=C\C)OCC(C1CC23)C54 (stereo not given)
inactive: dose: 11.25 mg/kg/injection, schedule: Q01DX009 (ip), vehicle: saline with Tween-80 106 % of control | dose: 22.5 mg/kg/injection, schedule: Q01DX009 (ip), vehicle: saline with Tween-80 105 % of control | dose: 45.0 mg/kg/injection, schedule: Q01DX009 (ip), vehicle: saline with Tween-80 106 % of control | dose: 90.0 mg/kg/injection, schedule: Q01DX009 (ip), vehicle: saline with Tween-80 104 % of control

COc1ccc(/C=N/N2CN(C(C)C(=O)O)C(C)(O)N=C2N)cc1OC (stereo not given)
inactive: dose: 60.0 mg/kg/injection, schedule: Q01DX005 (ip), vehicle: saline 102 % of control | dose: 120.0 mg/kg/injection, schedule: Q01DX005 (ip), vehicle: saline 104 % of control | dose: 240.0 mg/kg/injection, schedule: Q01DX005 (ip), vehicle: saline 103 % of control

CCCN(CCC)c1nnc([N+](=O)[O-])s1
inactive: dose: 50.0 mg/kg/injection, schedule: Q01DX001 (ip), vehicle: other 104 % of control | dose: 100.0 mg/kg/injection, schedule: Q01DX001 (ip), vehicle: other 100 % of control | dose: 200.0 mg/kg/injection, schedule: Q01DX001 (ip), vehicle: other 104 % of control

CCOC(=O)C1=C(C(=O)c2ccc(C)cc2)C(c2ccc([N+](=O)[O-])cc2)C(C(=O)c2ccc(C)cc2)=C(C(=O)OCC)N1
inactive: [1] 90 % of control | [2] 90 % of control

[O-][n+]1c2ccccc2cc2c1c1ccccc1n2O
inactive: dose: 12.5 mg/kg/injection, schedule: Q01DX005 (ip), vehicle: Klucel (hydroxypropylcellulose) (HPC) 113 % of control | dose: 25.0 mg/kg/injection, schedule: Q01DX005 (ip), vehicle: Klucel (hydroxypropylcellulose) (HPC) 107 % of control | [3] 106 % of control and 93 % of control

CC(C)(C)c1cc(C(C)(C)C)c2ssnc1-2
inactive: [1] 89 % of control | [2] 91 % of control | [4] 91 % of control

CCCOC(CN(C)C)C(Cl)(Cl)Cl (stereo not given)
inactive: [5] 101 % of control | [6] 104 % of control | [7] 100 % of control

O=C(NC(Cc1ccsc1)C(=O)O)c1ccccc1 (stereo not given)
inactive: dose: 25.0 mg/kg/injection, schedule: Q01DX009 (ip), vehicle: other 102 % of control | dose: 50.0 mg/kg/injection, schedule: Q01DX009 (ip), vehicle: other 104 % of control | dose: 100.0 mg/kg/injection, schedule: Q01DX009 (ip), vehicle: other 98 % of control

COc1ccccc1NC(=O)CC(=O)N1N=C(C)C(N=Nc2cccc(C(=O)O)c2)C1=O (stereo not given)
inactive: [1] 98 % of control | [2] 98 % of control

O=C1c2ccccc2C(=O)N1Cc1ccccc1Br
inactive: [3] 103 % of control | [8] 101 % of control | [9] 100 % of control

COc1ccc([N+](=O)[O-])cc1NS(=O)(=O)c1ccc(NC(C)=O)cc1
inactive: [5] 100 % of control | [6] 99 % of control | [7] 99 % of control

N#CN=[N+]([O-])c1cccc(Br)c1
inactive: dose: 6.25 mg/kg/injection, schedule: Q04DX003 (ip), vehicle: Klucel (hydroxypropylcellulose) (HPC) 102 % of control | dose: 12.5 mg/kg/injection, schedule: Q04DX003 (ip), vehicle: Klucel (hydroxypropylcellulose) (HPC) 101 % of control | dose: 25.0 mg/kg/injection, schedule: Q04DX003 (ip), vehicle: Klucel (hydroxypropylcellulose) (HPC) 105 % of control | dose: 50.0 mg/kg/injection, schedule: Q04DX003 (ip), vehicle: Klucel (hydroxypropylcellulose) (HPC) 100 % of control

CCCCN(CCCC)/N=N\N(CCCC)CCCC
inactive: [10] 104 % of control and 93 % of control | [11] 104 % of control and 90 % of control | [12] 107 % of control and 93 % of control and 94 % of control | [13] 98 % of control and 100 % of control and 97 % of control | [14] 105 % of control

O=C(O)c1c(Cl)c(Cl)c(Cl)c(Cl)c1-c1c2cc(Br)c(=O)c(Br)c-2oc2c(Br)c(O)c(Br)cc12
inactive: [12] 89 % of control | [13] 90 % of control

CC1(C)c2cccc(O)c2C(=O)C2C(O)=C3C(O)=C(C(N)=O)C(=O)CC3C(O)C21 (stereo not given)
inactive: [1] 109 % of control | [2] 111 % of control | [4] 121 % of control

CCNc1ccc(/C=C2\C=Cc3ccccc32)cc1
inactive: dose: 25.0 mg/kg/injection, schedule: Q01DX009 (ip), vehicle: Klucel (hydroxypropylcellulose) (HPC) 110 % of control

CC1=NN(C(=O)c2ccncc2)C(=O)C1N=Nc1c(C)n(C)n(-c2ccccc2)c1=O (stereo not given)
inactive: [15] 102 % of control | dose: 100.0 mg/kg/injection, schedule: Q01DX009 (ip), vehicle: saline with Tween-80 101 % of control | dose: 200.0 mg/kg/injection, schedule: Q01DX009 (ip), vehicle: saline with Tween-80 99 % of control

CCN(CC)C(=Nc1ccc(Cl)c(Cl)c1)SC(NC=O)=C(Cl)Cl
inactive: [16] 100 % of control | [17] 104 % of control | [18] 104 % of control

CCC(/C=C/c1ccccc1)=N\NC(=O)c1ccc(C)cc1
inactive: dose: 6.25 mg/kg/injection, schedule: Q01DX005 (ip), vehicle: saline with Tween-80 98 % of control | [10] 92 % of control | [11] 89 % of control

COC(CN(Cc1cccs1)S(=O)(=O)c1ccc(C)cc1)OC
inactive: [3] 94 % of control | [8] 94 % of control | [9] 99 % of control

CC1(c2ccc(Cl)cc2)NC(=O)N(CN2CCCCC2)C1=O (stereo not given)
inactive: dose: 12.5 mg/kg/injection, schedule: Q01DX009 (ip), vehicle: saline with Tween-80 100 % of control | dose: 25.0 mg/kg/injection, schedule: Q01DX009 (ip), vehicle: saline with Tween-80 100 % of control | [15] 100 % of control | dose: 50.0 mg/kg/injection, schedule: Q04DX003 (ip), vehicle: saline sonified 100 % of control | dose: 100.0 mg/kg/injection, schedule: Q04DX003 (ip), vehicle: saline sonified 107 % of control | dose: 200.0 mg/kg/injection, schedule: Q04DX003 (ip), vehicle: saline sonified 100 % of control

O=C1c2cccc(O)c2C(=O)c2c1cc(CO)c(-c1c(CO)cc3c(c1O)C(=O)c1c(O)cccc1C3=O)c2O
inactive: dose: 3.75 mg/kg/injection, schedule: Q01DX005 (ip), vehicle: Klucel (hydroxypropylcellulose) (HPC) 98 % of control | dose: 7.5 mg/kg/injection, schedule: Q01DX005 (ip), vehicle: Klucel (hydroxypropylcellulose) (HPC) 100 % of control | dose: 15.0 mg/kg/injection, schedule: Q01DX005 (ip), vehicle: Klucel (hydroxypropylcellulose) (HPC) 99 % of control

O=C1c2ccccc2C(=O)N1CC1CC(S(=O)(=O)c2ccccc2)=NO1 (stereo not given)
inactive: [12] 94 % of control | [13] 94 % of control | [14] 102 % of control

CCCCCN(CCCCC)C(C)C(=O)c1ccc(Cl)cc1 (stereo not given)
inactive: [3] 100 % of control | [8] 100 % of control | [9] 100 % of control

CC1SC2(C(=O)Nc3ccc(Cl)cc32)N(c2ccc(Cl)cc2)C1=O (stereo not given)
inactive: [16] 105 % of control | [17] 105 % of control | [18] 108 % of control

NC(N)=NCCCC(N)C(=O)N1CCCC1C(=O)O (stereo not drawn) (H-Arg-Pro-OH; configuration not given here)
inactive: dose: 50.0 mg/kg/injection, schedule: Q01DX005 (ip), vehicle: saline 101 % of control | dose: 100.0 mg/kg/injection, schedule: Q01DX005 (ip), vehicle: saline 97 % of control | dose: 200.0 mg/kg/injection, schedule: Q01DX005 (ip), vehicle: saline 100 % of control

Nc1[nH]c(=O)ncc1CS(=O)(=O)O
inactive: dose: 50.0 mg/kg/injection, schedule: Q04DX002 (ip), vehicle: saline with Tween-80 97 % of control | dose: 100.0 mg/kg/injection, schedule: Q04DX002 (ip), vehicle: saline with Tween-80 108 % of control | dose: 200.0 mg/kg/injection, schedule: Q04DX002 (ip), vehicle: saline with Tween-80 107 % of control

COc1ccc(C(C#N)N2CCCC2)cc1 (stereo not given)
inactive: dose: 6.25 mg/kg/injection, schedule: Q04DX003 (ip), vehicle: other 100 % of control | dose: 12.5 mg/kg/injection, schedule: Q04DX003 (ip), vehicle: other 100 % of control

Reference: PubChem BioAssay AID330 (DTP/NCI, 2004)
